Laboratory results from patent publication US20110028549A1, “USE OF A MONOTERPENE TO TREAT OR PREVENT STRESS” (AISA THERAPEUTICS, priority 2007, published 2011).

Tests used:
isoprenylation enzymes = details: cited from earlier work
[1] = cancer patients, doses which may have clinical activity; cited from earlier work
[2] = test system: female rats Wistar HsdBrlHan; test: Functional Observation Battery (FOB) in rats after oral treatment; assay type: in vivo, rat; details: for aggression (summary) / audible vocalization (summary) / body temperature (summary) / escapes after finger approach (summary) / interest for an object, curiosity (summary) / irritability (summary) / mictions (summary) / number of squares crossed (summary) / pain response (summary) / spontaneous activity (summary) / startle response (summary) / time before the rat falls (summary) / toe pinch reflex (summary) / wire manoeuvre (summary): FOB 1, 2 or 3 hours later, in comparison with the control; for capacity to tolerate stress: rats submitted to several stressful conditions, compared to vehicle-treated animals
Method: 1, 2 or 3 hours later, a Functional Observation Battery (FOB) was carried out.
Eighteen female rats Wistar HsdBrlHan EOPS (Ganat, France) with an average weight of 175-200 g are used. The 18 rats are weighed, marked and shared in 3 groups of 6 (n=6):
“control” group=oral treatment with maize oil;
“Perillic alcohol 10” group=oral treatment with perillic alcohol at 10 mg/kg;
The observations are carried out 60 minutes before treatment and 60, 120 and 180 minutes after the administration orally of the assayed products and comprise three observation phases:
a first direct observation phase during which the animal is not disturbed;
an active observation phase during which the animal is manipulated;
a phase dedicated to the evaluation of the responses of the animals towards the reactivity assays.
The studied variables are the following:
behavioural effects: spontaneous locomotive activity, locomotive behaviour troubles, anxiety, touch response, irritability, aggression and freezing caused behaviours, somnolence, number of defecations, number of mictions, sensor-motor responses (toe pinch response and sound response);
neurological effects: pupillary reflex, palpebral closure, pelvic elevation, tail position, limb and abdominal tones, reversal test, grip test, tremors and piloerection;
physiological effects: salivation, lacrimation, diarrhea, body temperature, respiratory rhythm.
Considering the Gaussian distribution or not of the data, parametric (P) or non-parametric (NP) tests are used: ANOVA (P) or Kruskal-Wallis test (NP) followed possibly by the Dunnett test (P) or the Mann-Whitney test (NP) to compare the treated groups with the control group. Statistics are carried out with the Statview 5 software (SAS, Institute Inc., USA).

[3] = 100 mg/kg limonene ingested in a custard, 4 h after ingestion, GC/MS; cited from earlier work
[4] = 10 mg/kg orally, T+60 min, Mann-Whitney test
[5] = 10 mg/kg orally, T+120 min, Mann-Whitney test
[6] = 10 mg/kg orally, T+180 min, Mann-Whitney test
[7] = 10 mg/kg orally, T+120 min, Mann-Whitney test vs. Control, n = 6
[8] = 10 mg/kg orally, T+180 min, Mann-Whitney test vs. Control, n = 6

| Molecule | IC50 on isoprenylation enzymes (isoprenylation enzymes) | inhibition of the isoprenylation enzymes (isoprenylation enzymes) | duration of the effect ([2]; 10 mg/kg orally) | overall effect indicated by the FOB results ([2]; 10 mg/kg orally) | time to response (onset) ([2]; 10 mg/kg orally) | aggression (summary) ([2]; 10 mg/kg orally) | audible vocalization (summary) ([2]; 10 mg/kg orally) | body temperature (summary) ([2]; 10 mg/kg orally) | escapes after finger approach (summary) ([2]; 10 mg/kg orally) | interest for an object, curiosity (summary) ([2]; 10 mg/kg orally) | irritability (summary) ([2]; 10 mg/kg orally) | mictions (summary) ([2]; 10 mg/kg orally) | number of squares crossed (summary) ([2]; 10 mg/kg orally) | pain response (summary) ([2]; 10 mg/kg orally) | spontaneous activity (summary) ([2]; 10 mg/kg orally) | startle response (summary) ([2]; 10 mg/kg orally) | time before the rat falls (summary) ([2]; 10 mg/kg orally) | toe pinch reflex (summary) ([2]; 10 mg/kg orally) | wire manoeuvre (summary) ([2]; 10 mg/kg orally) | Audible vocalization vs control group [2, 4] | other results |
| --- | --- | --- | --- | --- | --- | --- | --- | --- | --- | --- | --- | --- | --- | --- | --- | --- | --- | --- | --- | --- | --- |
| C=C(C)[C@@H]1CC=C(C(=O)O)CC1 [perillic acid] | low mM range | more potent inhibitors |  |  |  |  |  |  |  |  |  |  |  |  |  |  |  |  |  |  |  |
| S-limonene |  | only weak inhibitors |  |  |  |  |  |  |  |  |  |  |  |  |  |  |  |  |  |  |  |
| C=C(C)[C@H]1CC=C(C)CC1 [Limonene, (4R)-1-methyl-4-isopropenylcyclohex-1-ene] |  | only weak inhibitors | at least 3 hours | an appeasing, relaxing effect, an anti-pain effect and an effect on temper giving a cheerful character | less than one hour | no aggression | very poor | a decrease | less quickly escapes | an increase | no irritability | an increase | an increase | a high decrease | an increase | an important decrease | an increase | a decrease | an increase | significantly less vocalization | tolerability [1]: well tolerated; Interest for an object vs control group [2, 4]: significantly more important; Irritability vs control group [2, 4]: significantly less irritable; Toe pinch reflex vs control group [2, 4]: significantly less reactive; Audible vocalization vs control group [2, 5]: significantly less vocalization; Finger approach, escapes vs control group [2, 5]: significantly less escapes; Interest for an object vs control group [2, 5]: significantly more important; Irritability vs control group [2, 5]: significantly less irritable; Startles vs control group [2, 5]: significantly less startles; Audible vocalization vs control group [2, 6]: significantly less vocalization; Body temperature vs control group [2, 6]: significantly lower; Interest for an object vs control group [2, 6]: significantly higher; Number of squares crossed vs control group [2, 6]: significantly more squares; Startles vs control group [2, 6]: significantly less startles; Wire manoeuvre vs control group [2, 6]: significantly more often; capacity to tolerate stress [2]: an important effect leading to the capacity to tolerate stress; compounds (plasma metabolites) present in blood [3]: at least five compounds; identity of the two major plasma metabolite peaks [3]: dihydroperillic acid and perillic acid |
| C=C(C)[C@@H]1CC=C(CO)CC1 [Perillic alcohol, (S)-4-Isopropenyl-1-cyclohexenylmethanol] | low mM range | more potent inhibitors | already decreased after 2 hours | an appeasing, relaxing effect, an anti-pain effect and an effect on temper giving a cheerful character | less than one hour | no aggression | very poor | a decrease | less quickly escapes | an increase | no irritability | an increase | an increase | a high decrease | an increase | an important decrease | an increase | a decrease | an increase | tendancy to emit less vocalization | Interest for an object vs control group [2, 4]: tendency to have a more important interest; Irritability vs control group [2, 4]: significantly less irritable; Toe pinch reflex vs control group [2, 4]: significantly less reactive; Finger approach, escapes vs control group [2, 5]: significantly less escapes; Audible vocalization [2, 7]: N.S.; Interest for an object [2, 7]: N.S.; Irritability [2, 7]: N.S.; Startles [2, 7]: N.S.; Audible vocalization vs control group [2, 6]: tendency to emit less vocalization; Body temperature [2, 8]: N.S.; Interest for an object [2, 8]: N.S.; Number of squares crossed [2, 8]: N.S.; Startles [2, 8]: N.S.; Wire manoeuver [2, 8]: N.S.; capacity to tolerate stress [2]: an important effect leading to the capacity to tolerate stress |
